In brackets after ≈: the same amount, converted by molar mass.
Assays:
Experiment in all cases: minimum inhibitory concentration (ETEST)
[1] = test system: Neisseria mucosa/macacae
Procedure: (§1)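 Oropharyngeal Neisseria isolates from MSM and employees in Belgium were identified to species by MALDI-TOF MS. MICs of azithromycin, ceftriaxone and ciprofloxacin were determined by ETEST on GC agar after 24 h at 36.5 °C and 5-7% CO2, in mg/L. Values beyond the strip range are reported as >256 (azithromycin) or <0.016 (ceftriaxone); isolates that did not grow are NA.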

[2] = test system: Neisseria meningitidis
Procedure: as §1

[3] = test system: Neisseria lactamica; conditions: population: general population, antibiotic use in previous 6 months: No
Procedure: as §1

CO/N=C(\C(=O)N[C@@H]1C(=O)N2C(C(=O)O)=C(CSc3nc(=O)c(O)nn3C)CS[C@H]12)c1csc(N)n1 [ceftriaxone]
Conditions | minimum inhibitory concentration [µg/mL]
[1], isolate id (sample isolate): 19041762_2, population: MSM, antibiotic use in previous 6 months: Yes | 0.032 (≈ 0.0577 µM)
[1], isolate id (sample isolate): 19051904_1, population: MSM, antibiotic use in previous 6 months: Yes | 0.047 (≈ 0.0847 µM)
[1], isolate id (sample isolate): 19052394_2, population: MSM, antibiotic use in previous 6 months: Yes | 0.032 (≈ 0.0577 µM)
[1], isolate id (sample isolate): 19062968_1, population: MSM, antibiotic use in previous 6 months: Yes | 0.064 (≈ 0.115 µM)
[1], isolate id (sample isolate): 19081774_2, population: MSM, antibiotic use in previous 6 months: No | 0.094 (≈ 0.169 µM)
[1], isolate id (sample isolate): 19111422_4, population: MSM, antibiotic use in previous 6 months: No | 0.032 (≈ 0.0577 µM)
[1], isolate id (sample isolate): 19111422_7, population: MSM, antibiotic use in previous 6 months: No | 0.032 (≈ 0.0577 µM)
[1], isolate id (sample isolate): Co000770_5, population: general population, antibiotic use in previous 6 months: No | 0.047 (≈ 0.0847 µM)
[1], isolate id (sample isolate): Co000771_4, population: general population, antibiotic use in previous 6 months: No | 0.064 (≈ 0.115 µM)
[1], isolate id (sample isolate): Co000772_3, population: general population, antibiotic use in previous 6 months: No | 0.032 (≈ 0.0577 µM)
[1], isolate id (sample isolate): Co000773_3, population: general population, antibiotic use in previous 6 months: No | 0.032 (≈ 0.0577 µM)
[1], isolate id (sample isolate): Co000779_1, population: general population, antibiotic use in previous 6 months: No | 0.125 (≈ 0.225 µM)
[1], isolate id (sample isolate): Co000783_3, population: general population, antibiotic use in previous 6 months: No | 0.032 (≈ 0.0577 µM)
[1], isolate id (sample isolate): Co000783_6, population: general population, antibiotic use in previous 6 months: No | 0.032 (≈ 0.0577 µM)
[1], isolate id (sample isolate): Co000787_3, population: general population, antibiotic use in previous 6 months: No | 0.094 (≈ 0.169 µM)
[1], isolate id (sample isolate): Co000788_1, population: general population, antibiotic use in previous 6 months: No | 0.032 (≈ 0.0577 µM)
[1], isolate id (sample isolate): Co000788_4, population: general population, antibiotic use in previous 6 months: No | 0.032 (≈ 0.0577 µM)
[2], isolate id (sample isolate): 19040471_1, population: MSM, antibiotic use in previous 6 months: No | < 0.016
[2], isolate id (sample isolate): 19040855_1, population: MSM, antibiotic use in previous 6 months: No | < 0.016
[2], isolate id (sample isolate): 19040874_2, population: MSM, antibiotic use in previous 6 months: No | 0.016 (≈ 0.0289 µM)
[2], isolate id (sample isolate): 19040900_2, population: MSM, antibiotic use in previous 6 months: No | 0.023 (≈ 0.0415 µM)
[2], isolate id (sample isolate): 19042150_2, population: MSM, antibiotic use in previous 6 months: Yes | < 0.016
[2], isolate id (sample isolate): 19042756_3, population: MSM, antibiotic use in previous 6 months: Yes | < 0.016
[2], isolate id (sample isolate): 19043201_1, population: MSM, antibiotic use in previous 6 months: No | < 0.016
[2], isolate id (sample isolate): 19043201_2, population: MSM, antibiotic use in previous 6 months: No | < 0.016
[2], isolate id (sample isolate): 19043274_1, population: MSM, antibiotic use in previous 6 months: Yes | < 0.016
[2], isolate id (sample isolate): 19043274_2, population: MSM, antibiotic use in previous 6 months: Yes | 0.016 (≈ 0.0289 µM)
[2], isolate id (sample isolate): 19051853_1, population: MSM, antibiotic use in previous 6 months: No | < 0.016
[2], isolate id (sample isolate): 19052394_3, population: MSM, antibiotic use in previous 6 months: Yes | < 0.016
[2], isolate id (sample isolate): 19052434_1, population: MSM, antibiotic use in previous 6 months: Yes | < 0.016
[2], isolate id (sample isolate): 19060069_1, population: MSM, antibiotic use in previous 6 months: Yes | 0.064 (≈ 0.115 µM)
[2], isolate id (sample isolate): 19060069_2, population: MSM, antibiotic use in previous 6 months: Yes | 0.064 (≈ 0.115 µM)
[2], isolate id (sample isolate): 19060089_2, population: MSM, antibiotic use in previous 6 months: Yes | < 0.016
[2], isolate id (sample isolate): 19061666_1, population: MSM, antibiotic use in previous 6 months: Yes | 1 (≈ 1.8 µM)
[2], isolate id (sample isolate): 19062990_1, population: MSM, antibiotic use in previous 6 months: Yes | < 0.016
[2], isolate id (sample isolate): 19070019_2, population: MSM, antibiotic use in previous 6 months: No | 0.047 (≈ 0.0847 µM)
[2], isolate id (sample isolate): 19070019_4, population: MSM, antibiotic use in previous 6 months: No | 0.064 (≈ 0.115 µM)
[2], isolate id (sample isolate): 19070047_1, population: MSM, antibiotic use in previous 6 months: No | < 0.016
[2], isolate id (sample isolate): 19082621_2, population: MSM, antibiotic use in previous 6 months: No | < 0.016
[2], isolate id (sample isolate): 19091461_1, population: MSM, antibiotic use in previous 6 months: No | < 0.016
[2], isolate id (sample isolate): 19091461_2, population: MSM, antibiotic use in previous 6 months: No | < 0.016
[2], isolate id (sample isolate): 19091973_1, population: MSM, antibiotic use in previous 6 months: No | < 0.016
[2], isolate id (sample isolate): 19092429_3, population: MSM, antibiotic use in previous 6 months: No | < 0.016
[2], isolate id (sample isolate): 19103457_1, population: MSM, antibiotic use in previous 6 months: No | < 0.016
[2], isolate id (sample isolate): 19103457_4, population: MSM, antibiotic use in previous 6 months: No | < 0.016
[2], isolate id (sample isolate): 19110394_1, population: MSM, antibiotic use in previous 6 months: No | < 0.016
[2], isolate id (sample isolate): 19113049_3, population: MSM, antibiotic use in previous 6 months: No | < 0.016
[2], isolate id (sample isolate): 19113049_6, population: MSM, antibiotic use in previous 6 months: No | < 0.016
[2], isolate id (sample isolate): Co000765_1, population: general population, antibiotic use in previous 6 months: No | < 0.016
[2], isolate id (sample isolate): Co000790_1, population: general population, antibiotic use in previous 6 months: No | < 0.016
[2], isolate id (sample isolate): Co000790_3, population: general population, antibiotic use in previous 6 months: No | < 0.016

[3]
Conditions | minimum inhibitory concentration [µg/mL]
isolate id (sample isolate): Co000761_1 | < 0.016
isolate id (sample isolate): Co000771_1 | < 0.016

Reference: the supplement of paper PMC8741786
